# Laboratory results from ChEMBL document CHEMBL2062407, “Synthesis of N²-modified 7-methylguanosine 5'-monophosphates as nematode translation inhibitors” (Bioorg Med Chem, 2012).
# pIC50: −log10 of the molar value.
# Test system: Ascaris suum
# Test: Ratio of m7GTP IC50 to compound IC50 for Ascaris suum eIF4E-3 assessed as inhibition of cap-dependent translation after 1 hr by cell-free Renilla luciferase reporter gene assay
row,Ratio IC50,SMILES
1,7,COc1ccc(CNc2nc3c(c(=O)[nH]2)[n+](C)cn3[C@@H]2O[C@H](COP(=O)([O-])O)[C@@H](O)[C@H]2O)cc1

# Test system: not listed separately
# Test: Inhibition of Ascaris suum eIF4E-3 assessed as inhibition of cap-dependent translation after 1 hr by cell-free Renilla luciferase reporter gene assay
row,pIC50,SMILES
1,5.37,C[n+]1cn([C@@H]2O[C@H](COP(=O)([O-])O)[C@@H](O)[C@H]2O)c2nc(NCc3ccc(-c4ccccc4)cc3)[nH]c(=O)c21
2,4.86,CCN(C)c1nc2c(c(=O)[nH]1)[n+](C)cn2[C@@H]1O[C@H](COP(=O)([O-])O)[C@@H](O)[C@H]1O
3,< 4.30,C[n+]1cn([C@@H]2O[C@H](COP(=O)([O-])O)[C@@H](O)[C@H]2O)c2nc(N)[nH]c(=O)c21
4,< 4.30,CN(Cc1ccccc1)c1nc2c(c(=O)[nH]1)[n+](C)cn2[C@@H]1O[C@H](COP(=O)([O-])O)[C@@H](O)[C@H]1O
5,< 4.30,CC(C)CN(C)c1nc2c(c(=O)[nH]1)[n+](C)cn2[C@@H]1O[C@H](COP(=O)([O-])O)[C@@H](O)[C@H]1O
6,< 4.30,CCCCN(C)c1nc2c(c(=O)[nH]1)[n+](C)cn2[C@@H]1O[C@H](COP(=O)([O-])O)[C@@H](O)[C@H]1O
7,5.21,C[n+]1cn([C@@H]2O[C@H](COP(=O)([O-])OP(=O)(O)OP(=O)(O)O)[C@@H](O)[C@H]2O)c2nc(N)[nH]c(=O)c21
8,6.05,COc1ccc(CNc2nc3c(c(=O)[nH]2)[n+](C)cn3[C@@H]2O[C@H](COP(=O)([O-])O)[C@@H](O)[C@H]2O)cc1
9,< 4.30,C[n+]1cn([C@@H]2O[C@H](COP(=O)([O-])O)[C@@H](O)[C@H]2O)c2nc(N(Cc3ccccc3)Cc3ccccc3)[nH]c(=O)c21
10,< 4.30,CCN(CC)c1nc2c(c(=O)[nH]1)[n+](C)cn2[C@@H]1O[C@H](COP(=O)([O-])O)[C@@H](O)[C@H]1O
11,5.24,C[n+]1cn([C@@H]2O[C@H](COP(=O)([O-])O)[C@@H](O)[C@H]2O)c2nc(NCC3CCCCC3)[nH]c(=O)c21
12,5.42,C[n+]1cn([C@@H]2O[C@H](COP(=O)([O-])O)[C@@H](O)[C@H]2O)c2nc(NCc3ccc(Cl)cc3)[nH]c(=O)c21
13,5.54,C[n+]1cn([C@@H]2O[C@H](COP(=O)([O-])O)[C@@H](O)[C@H]2O)c2nc(NCc3ccccc3)[nH]c(=O)c21
14,5.41,CCCCNc1nc2c(c(=O)[nH]1)[n+](C)cn2[C@@H]1O[C@H](COP(=O)([O-])O)[C@@H](O)[C@H]1O
15,5.35,CC(C)CNc1nc2c(c(=O)[nH]1)[n+](C)cn2[C@@H]1O[C@H](COP(=O)([O-])O)[C@@H](O)[C@H]1O
16,4.90,C[n+]1cn([C@@H]2O[C@H](COP(=O)([O-])O)[C@@H](O)[C@H]2O)c2nc(NCc3ccc([N+](=O)[O-])cc3)[nH]c(=O)c21
